Data from patent US20090221539A1, “METHOD OF DETECTING AND REDUCING BOAR TAINT USING NUCLEAR RECEPTORS” (UNIVERSITY OF GUELPH, priority 2005, published 2009).
Like-named read-outs stand apart in the source and are kept apart here.

Assays:
3β-HSD = settings: boar hepatocytes, ligand 8 or 10 hours, vs DMSO
Description: (§5) Boar hepatocytes treated with ligands for 8-10 hrs prior to RNA isolation and real time PCR analysis. B-actin was used as the housekeeping gene and DMSO (no hormone treatment) was used as the calibrator. For CYP2A6, CYP2E1, SULT1A1 and UGT2B the primer inefficiencies should not affect the resultant fold changes in this experiment since all hepatocyte treatments come from a single boar and analysis is compared to the no hormone DMSO control. This analysis should be valid since the calibrator is from the same pool of cells.
(§6) Primary boar hepatocytes were treated with seven different CAR ligands identified in objective 2 and 5, with DMSO used as the vehicle control. Primary cells were plated on 60 mm dishes and treated with ligand. The treatments were incubated for 8 or 10 hours and the RNA was extracted from cells in each treatment. Real Time PCR primers were designed for seven genes of interest CYP2A6, CYP2E1, 3β-HSD, 3α-HSD, SULT2A1, SULT1A1, UGT2B, CYP2B6 and pgCAR, with B-actin used as the housekeeping gene for ΔΔCT analysis.

SULT2A1 [1] = settings: boar hepatocytes, ligand 8 or 10 hours, vs DMSO
Description: as §5, §6

UGT2B = settings: boar hepatocytes, ligand 8 or 10 hours, vs DMSO
Description: as §5, §6

pgCAR [2] = test: Dual luciferase reporter assay in HepG2 cells transiently transfected with pgCAR; assay type: cell-based, pig; settings: for reporter gene expression (fold-change relative to DMSO vehicle): pgCAR, CYP2B6 response element firefly luciferase, hormones at 10 μM
Method: Dual Luciferase Reporter Assay: Pig, human ? mouse ? receptors were tested in a transient transfection assay against a panel of hormones and xenobiotics. Hormones and TCPOBOP were tested at 10 μM with the exception of CITCO at 1 μM. The effects of ligands are expressed as fold-change relative to vehicle (dimethylsulfoxide 1:2000) control for each receptor.
The dual luciferase reporter assay (Promega) was used as a screening tool to identify ligands (hormone and xenobiotic compounds) that regulate the nuclear receptor CAR. The dual luciferase assay consists of 3 plasmids. A pgCAR or hCAR or mCAR expression plasmid containing the full length wild type isoform is used together with a reporter construct, consisting of the CAR response gene promoter element from CYP2B6 regulating the expression of the firefly luciferase gene. […] The Promega Dual-Luciferase Reporter Assay System (Cat#E11960) was used to determine the hormones and xenobiotics that modulate the CAR responsive genes by measuring the amount light produced by the firefly luciferase gene construct.
The dual luciferase assay method uses HepG2 cells (that express RXR) plated at 50% confluence onto 96 well cell culture plates. The cells are transiently transfected after 1 day with pgCAR expression plasmid, reporter plasmid (containing the CAR response element) and the internal control plasmid, which are pooled treatments to ensure all samples receive the same amount of plasmids. On day two, control or ligand supplemented media are added to cells (ligands from FIG. 4 at 10 ug/ml in DMSO) for a total of n=15 for each ligand. On day four, the media is removed and cells are washed with PBS to remove detached cells and remaining media. The cell monolayer is then treated with Passive lysis buffer and the cell lysate is then transferred to a test tube for analysis. Luminometer readings are made on a Berthold Detection systems Sirius single tube luminometer with dual injectors. The test tube is loaded into the measurement chamber and the LARII luciferase reagent is injected into the cell lysate and a 10 second firefly luciferase relative light unit (RLU) measurement is recorded. The Stop & Glo reagent is then injected into the same tube and the Renella luciferase RLU is measured. The ratio of reporter to control luminescence is used to normalize transfection efficiencies between plates; the normalized values are then statistically analyzed by t-tests to determine how efficiently CAR activates the firefly luciferase reporter gene in response to ligand treatment.

CYP2A6 = CYP2A6 activity (coumarin 7-hydroxylase, COH assay) in primary pig hepatocytes after inducer treatment; settings: for CYP2A6 activity: isoproterenol 500 μM, CITCO 1.0 μM
Method: (§1) Each data point represents results obtained from 3 separate experiments run in triplicate.
(§2) Hepatocytes were prepared by a modification of a collagenase perfusion method described previously (Sinclair et al., 2005). Briefly, one hepatic lobe was immediately catheterized by selecting the largest vessel at the cut end. Blood was then flushed from the liver by perfusion with 25 mL/min of medium containing 10 mM hydroxyethyl piperazine ethane (HEPES), 1 mM EGTA and HBSS (pH 7.4) delivered at 37° C. The lobe was then perfused for 5 minutes with the same medium without EGTA and then with William's E Media (pH 7.4) containing 10 mM HEPES and 0.7 mg/mL collagenase type 1 for 10 to 25 minutes until the hepatocytes appeared to be fully dissociated.
(§3) All remaining experimental procedures were carried out under sterile conditions. The lobe was gently minced with a scalpel to disassociate cells in attachment medium containing 10 mM HEPES, 10% (v/v) fetal bovine serum, 1% (v/v) penicillin-streptomycin and 50 Units/L insulin in William's E media (pH 7.4), at 4° C. Cells were filtered through gauze and centrifuged at 15×g for 3 minutes. The cell pellet was washed in attachment media and cell viability was determined by trypan blue exclusion. […] Hepatocytes were then plated on Primaria™ 60 mm tissue culture dishes (VWR International Ltd., Mississauga, ON) at a density of 2.25×10^6 cells in 3.0 mL attachment media, and kept in a incubator at 37° C. supplied with 95% air and 5% CO2. After 4 hours to allow for attachment of the cells, the medium was replaced with serum-free medium that contained 10 mM HEPES, 10 mM pyruvate, 0.35 mM proline, 1% (v/v) penicillin-streptomycin and 50 Units/L insulin in William's E media (pH 7.4) with treatments. For inducer experiments, hepatocytes were treated for 19 hours prior to the determination of P450 activities and 3MI metabolism.
(§4) To determine the rate of p-nitrophenol (PNP) hydroxylase activity and coumarin 7-hydroxylase (COH) activity, hepatocytes were incubated with 500 μM PNP or 100 μM coumarin according to the procedures previously described (Terner et al, in press). Assays were validated to be linear with time and proportional to number of cells. Production of metabolites was determined in duplicate by interpolation of standard curves made from authentic standards p-nitrocatechol and 7-hydroxycoumarin.

CYP2E1 = CYP2E1 activity (PNP hydroxylase assay) in primary pig hepatocytes after inducer treatment; settings: isoproterenol 500 μM, hormones and rifampicin 10 μM, CITCO 1.0 μM
Method: as §1, §2, §3, §4

3MI metabolism = 3MI metabolism assay: production of HMOI and 3MOI in primary pig hepatocytes after inducer treatment; assay type: cell-based; settings: for 3MI metabolism: CITCO 1.0 μM
Method: as §1, §2, §3
To measure 3MI metabolism in primary cultured hepatocytes, cells were incubated with 500 μM 3MI for 6 hours, after which an equal volume of acetonitrile was added to stop the reaction. The production of metabolites was then determined by HPLC analysis as previously described (Terner et al., in press). Formation of metabolites was determined by interpolation of standard curves made from authentic standards HMOI and 3MOI run in duplicate.

SULT2A1 [3] = test: SULT2A1 activity in primary porcine Leydig cells after treatment with nuclear receptor ligands ([3H]DHEA to DHEAS conversion); assay type: cell-based, pig; settings: primary Leydig cells of mature Yorkshire boars, 24 hours; CITCO 1 μM, TCPOBOP 250 nM, phenobarbital 2 mM, phenytoin 50 μM, rifampicin 10 μM, PCN 10 μM, dexamethasone 0.1 μM, lithocolic acid 100 μM; vs control
Method: FIG. 1: Effect of nuclear receptor ligands on SULT2A1 activity in porcine Leydig cells. Primary porcine Leydig cells were isolated from mature Yorkshire boars and the SULT2A1 activity was determined. Leydig cells were cultured in the presence of; CITCO (1 μM), TCPOBOP (250 nM), Phenobarbital (2 mM), Phenytoin (50 μM), Rifampicin (10 μM), PCN (10 μM), Dexamethasone (0.1 μM), Cholic Acid (100 μM), and Lithocolic Acid (100 μM) for 24 hours. Treatments are grouped according to the nuclear receptor affected: constitutive androstane receptor (CAR), pregnane X receptor (PXR), glucocorticoid receptor (GR) and farnesoid X receptor (FXR). Values are presented as means±SE of 3 independent experiments with significant differences indicated (*P<0.05).
Mature Yorkshire boars of 175±6 days obtained from the Arkell Swine Research Station at the University of Guelph, Guelph, ON were used for the isolation of Leydig cells. After slaughter, the testes were immediately removed and transported to the laboratory within five minutes. Testicular tissue was sliced into pieces of 1 cm^2×2-3 mm thickness and 100 g of tissue was incubated for 20 minutes in a shaking water bath at 37° C. with 1 mg/ml collagenase (type 1A), 50 μg/ml DNase and 50 μg/ml trypsin inhibitor in 250 ml of TC 199 Media containing 1 g/L bovine serum albumin and 0.1 g/L L-glutamine. Preparations of purified Leydig cells were obtained by layering the collagenase—dispersed testicular cells onto discontinuous Percoll gradients supplemented with HBSS. The preparations were then centrifuged at 1500×g for 15 minutes at 4° C. and the cells present at the 40-60% interface were collected as outlined previously (Raeside & Renaud 1983). Cell viability was determined by trypan blue exclusion. The typical viability of Leydig cells after this procedure was greater than 90%.
To further understand the molecular mechanisms that control SULT2A1 gene transcription, various nuclear receptor ligands were evaluated for their ability to induce SULT2A1 activity in Leydig cells. Aliquots of re-suspended Leydig cells (1×10^6 cells/ml) in TC 199 Media mixture were plated in 24 well plates. The Leydig cells were then treated with various nuclear receptor ligands as outlined in the figure legends in less than 0.5% DMSO vehicle and incubated at 37° C. in 95% air and 5% CO2 for 24 hours.
After the 24 h incubation period, the media was aspirated and approximately 10,000 cpm of [^3H] […] The cells were incubated for 4 h and the media was removed and immediately extracted by Sep-Pak C18 solid-phase chromatography, as described above. Sulfotransferase activity was assayed by measuring the conversion of [^3H] […] DHEAS (conjugate) fractions by liquid scintillation counting. […]

pgCAR [4] = test: Dual luciferase reporter assay in primary boar hepatocytes transfected with pgCAR; assay type: cell-based, pig; settings: primary boar hepatocytes with exogenous pgCAR expression plasmid
Method: FIG. 11. Dose response analysis of CITCO ligand treatment in primary boar hepatocytes. Unlike HepG2 cells, primary hepatocytes have very low basal luciferase expression allowing for the detection of significant fold changes above no hormone control at lower doses.
FIG. 12. Dose response analysis of Phenytoin ligand treatment in primary boar hepatocytes.
FIG. 13. Dual luciferase assay of selected ligand in boar hepatocytes. Selected activators and repressors of pgCAR in HepG2 cells were tested in boar hepatocytes. […] Only reporter gene activations and not repressions are detectable in this cell model.
Transfection experiments using the HepG2 cell line identified compounds that were able to alter pgCAR gene regulation. Experiments performed on primary mouse and human hepatocytes indicate that gene regulation has additional levels of complexity, and CAR is not constitutively active in vivo. This experiment uses a similar methodology as objective 2 except primary boar hepatocytes were used as the cell line. Hepatocytes were transfected with a reporter construct containing the CAR responsive element, an internal control Renilla luciferase construct, and pgCAR or an empty vector as control. Control experiments without pgCAR were conducted to determine if endogenous pgCAR in the hepatocytes could activate the reporter construct. […] The cascade of events leading to gene activation remains unclear.

[5] = 3-week old male pig hepatocytes, hormones 10 μM, given as increase, FIG. 2 values as percent of control
[6] = adult male hepatocytes, hormones and rifampicin 10 μM
[7] = 3-week old male pig hepatocytes, given as increase, FIG. 2 values as percent of control
[8] = 3-week old male pig hepatocytes, isoproterenol 500 μM, hormones and rifampicin 10 μM, given as increase, FIG. 2 values as percent of control
[9] = adult male hepatocytes, isoproterenol 500 μM, estrone 10 μM, given as increase, FIG. 2 values as percent of control

C[C@]12CCC(=O)C[C@@H]1CC[C@@H]1[C@@H]2CC[C@]2(C)[C@@H](O)CC[C@@H]12 [5α-DHT, 5α dihydrotestosterone]
3β-HSD gene expression (3β-HSD): significantly activated
SULT2A1 gene expression (SULT2A1 [1]): significantly activated
UGT2B gene expression (UGT2B): significantly activated

C[C@@]12C=CC[C@H]1[C@@H]1CC=C3C[C@@H](O)CC[C@]3(C)[C@H]1CC2 [5,16-androstadien-3β-ol]
reporter gene expression (fold-change relative to DMSO vehicle) (pgCAR [2]): significant repressions

C[C@@]12CCC[C@H]1[C@@H]1CC[C@H]3C[C@@H](O)CC[C@]3(C)[C@H]1CC2 [androstanol]
CYP2A6 activity (CYP2A6; [5]): did not alter
CYP2A6 activity (CYP2A6; [6]): did not alter
CYP2E1 activity (CYP2E1; [7]): did not alter
CYP2E1 activity (CYP2E1; adult male hepatocytes): did not alter
production of 3MOI (3MI metabolism; [8]): did not affect
production of the 3MI metabolite HMOI (3MI metabolism; [8]): did not affect

CO[C@H]1/C=C/O[C@@]2(C)Oc3c(C)c(O)c4c(O)c(c(/C=N/N5CCN(C)CC5)c(O)c4c3C2=O)NC(=O)/C(C)=C\C=C\[C@H](C)[C@H](O)[C@@H](C)[C@@H](O)[C@@H](C)[C@H](OC(C)=O)[C@@H]1C [Rifampicin]
decrease in CYP2A6 activity (CYP2A6; male, pig, hepatocytes, 19 h, 10 μM, pH 7.4): 43±7%
production of 3MOI (3MI metabolism; [8]): 128±10%
production of the 3MI metabolite HMOI (3MI metabolism; [8]): 151±14%

CC(=O)[C@H]1[C@H](C#N)C[C@H]2[C@@H]3CC=C4C[C@@H](O)CC[C@]4(C)[C@H]3CC[C@@]21C [PCN, Pregnenolone 16α-carbonitrile]
SULT2A1 activity (SULT2A1 [3]): only rifampicin resulted in a significant increase

Clc1ccc(-c2nc3sccn3c2C=NOCc2ccc(Cl)c(Cl)c2)cc1 [CITCO, 6-(4-chlorophenyl)imidazo[2,1-b][1,3]thiazole-5-carbaldehyde O-(3,4-dichlorobenzyl)oxime]
SULT2A1 activity (SULT2A1 [3]): did not affect
activation of the luciferase reporter construct (pgCAR [4]): activated the reporter construct
3MI metabolism (3MI metabolism; 3-week old male hepatocytes): did not increase CYP2E1 or CYP2A6 activity, or affect 3MI metabolism
3MI metabolism (3MI metabolism; adult male hepatocytes, rifampicin 10 μM): did not increase CYP2E1 or CYP2A6 activity, or affect 3MI metabolism
dose at which CITCO significantly activates the pgCAR receptor (pgCAR [2]; dose response 0.01-10.0): ≥ 0.5 µM
reporter gene expression (fold-change relative to DMSO vehicle) (pgCAR [2]): significant activation

C[C@]12CC[C@@H]3c4ccc(O)cc4CC[C@H]3[C@@H]1CCC2=O [estrone]
HMOI production (3MI metabolism; [9]): 142±12%

C[C@]12CC[C@H]3[C@@H](CCC4=CC(=O)CC[C@@]43C)[C@@H]1CC[C@@H]2O [testosterone]
CYP2A6 activity (CYP2A6; [5]): did not alter
CYP2A6 activity (CYP2A6; [6]): did not alter
CYP2E1 activity (CYP2E1; [7]): did not alter
CYP2E1 activity (CYP2E1; adult male hepatocytes): did not alter
production of 3MOI (3MI metabolism): did not affect
production of the 3MI metabolite HMOI (3MI metabolism): did not affect

C[C@]12CC[C@@H](O)C[C@@H]1CC[C@@H]1[C@@H]2CC[C@]2(C)C=CC[C@@H]12 [androstenol]
production of 3MOI (3MI metabolism; [8]): did not affect
production of the 3MI metabolite HMOI (3MI metabolism; [8]): did not affect

O=C1NC(=O)C(c2ccccc2)(c2ccccc2)N1 [phenytoin]
SULT2A1 activity (SULT2A1 [3]): significant increase
activation of the luciferase reporter construct (pgCAR [4]): activated the reporter construct

Clc1cnc(Oc2ccc(Oc3ncc(Cl)cc3Cl)cc2)c(Cl)c1 [TCBOPOP, 1,4-bis-[2-(3,5-dichloropyridyl-oxy)]benzene; 3,3′5,5′-tetrachloro-1,4-bis(pyridyl-oxy)benzene]
SULT2A1 activity (SULT2A1 [3]): did not affect

CC(C)NCC(O)c1ccc(O)c(O)c1 (stereo not shown) [isoproterenol]
production of 3MOI (3MI metabolism; [8]): unaffected
production of the 3MI metabolite HMOI (3MI metabolism; [8]): 150±13%
3MOI production (3MI metabolism; adult male hepatocytes, isoproterenol 500 μM, estrone 10 μM): did not alter
HMOI production (3MI metabolism; [9]): 139±12%

C[C@]12CC[C@H](O)C[C@@H]1CC[C@@H]1[C@@H]2CC[C@]2(C)C=CC[C@@H]12 [5α-androsten-3β-ol]
reporter gene expression (fold-change relative to DMSO vehicle) (pgCAR [2]): significant repressions
